This is an account of results in patent publication US20230159597A1 (priority 2020, published 2023).

[ ]: non-standard residue; d: D form. The star is where a group is joined. X1 = CC(C)CCC[C@@H](C)[C@H]1CC[C@H]2[C@@H]3CC=C4C[C@@H](OC(=O)C*)CC[C@]4(C)[C@H]3CC[C@]12C; PEG4 = NCCOCCOCCOCCOCCC(=O)O

In one assay the target is SARS CoV-2 glycoprotein (Severe acute respiratory syndrome coronavirus 2, UniProt P0DTC2). Description: cell-based.
The next assay has as its system SARS-CoV-2. The assay is classed as cell-based.

In general, IC90 refers to the concentration at which the effect reaches the 90% level. Low readings indicate greater potency, high ones weaker potency. As to “Ac-SLTQINTTLLNLEYEMKKLEEVVKKLEESYIDLKELGSG[PEG4]C(X1)-NH2 [MERS lipid-peptide]”, it took 200 nM to reach the 90% level on SARS CoV-2 glycoprotein (IC90). In addition, in the assay on SARS-CoV-2, the “reduction in SARS-CoV-2 infection” value was 100%.
In general, IC50 refers to the concentration that inhibits the measured activity by half. A lower IC50 goes with higher potency. `CC[C@H](C)[C@H](NC(=O)CNC(=O)[C@H](CO)NC(=O)CNC(=O)[C@H](CCCNC(=N)N)NC(=O)[C@H](CCCNC(=N)N)NC(=O)[C@H](CCCNC(=N)N)NC(=O)[C@H](CCC(N)=O)NC(=O)[C@H](CCCNC(=N)N)NC(=O)[C@H](CCCNC(=N)N)NC(=O)[C@H](CCCCN)NC(=O)[C@H](CCCCN)NC(=O)[C@H](CCCNC(=N)N)NC(=O)CNC(=O)[C@H](Cc1ccc(O)cc1)NC(C)=O)C(=O)N[C@@H](CCC(=O)O)C(=O)N1CCC[C@H]1C(=O)N[C@@H](Cc1c[nH]cn1)C(=O)N[C@@H](CC(=O)O)C(=O)N[C@@H](Cc1c[nH]c2ccccc12)C(=O)N[C@H](C(=O)N[C@@H](CCCCN)C(=O)N[C@@H](CC(N)=O)C(=O)N[C@H](C(=O)N[C@H](C(=O)N[C@@H](CC(=O)O)C(=O)N[C@@H](CCCCN)C(=O)N[C@H](C(=O)N[C@@H](CC(=O)O)C(=O)N[C@@H](CCC(N)=O)C(=O)N[C@H](C(=O)N[C@H](C(=O)N[C@@H](Cc1c[nH]cn1)C(=O)N[C@@H](CC(=O)O)C(=O)N[C@@H](Cc1ccccc1)C(=O)N[C@H](C(=O)N[C@@H](CC(=O)O)C(=O)N[C@@H](CCCCN)C(=O)NCC(=O)N[C@@H](CO)C(=O)NCC(=O)N[C@@H](CO)C(=O)NCC(=O)N[C@@H](CSCC(=O)NCCOCCOCCOCCOCCC(=O)Oc1c(C)c(C)c2c(c1C)CC[C@@](C)(CCC[C@H](C)CCC[C@H](C)CCCC(C)C)O2)C(N)=O)C(C)C)[C@@H](C)CC)[C@@H](C)CC)[C@@H](C)CC)[C@@H](C)O)[C@@H](C)CC)[C@@H](C)O` [TAT-EBO-PEG4-Toco]: the values for the IC50 in the assay on ZEBOV Mayinga, in the assay with ZEBOV Gueckedou C07 and in the assay with Bundibugyo EBOV were 700 nM, 100 nM and 310 nM, respectively. In addition, the Max % inh is 96.9% in the assay with ZEBOV Mayinga, 100% in the assay with ZEBOV Gueckedou C07 and 100% with Bundibugyo EBOV.
For the compound `CC[C@H](C)[C@H](NC(=O)CNC(=O)[C@H](CO)NC(=O)CNC(=O)[C@H](CCCNC(=N)N)NC(=O)[C@H](CCCNC(=N)N)NC(=O)[C@H](CCCNC(=N)N)NC(=O)[C@H](CCC(N)=O)NC(=O)[C@H](CCCNC(=N)N)NC(=O)[C@H](CCCNC(=N)N)NC(=O)[C@H](CCCCN)NC(=O)[C@H](CCCCN)NC(=O)[C@H](CCCNC(=N)N)NC(=O)CNC(=O)[C@H](Cc1ccc(O)cc1)NC(C)=O)C(=O)N[C@@H](CCC(=O)O)C(=O)N1CCC[C@H]1C(=O)N[C@@H](Cc1c[nH]cn1)C(=O)N[C@@H](CC(=O)O)C(=O)N[C@@H](Cc1c[nH]c2ccccc12)C(=O)N[C@H](C(=O)N[C@@H](CCCCN)C(=O)N[C@@H](CC(N)=O)C(=O)N[C@H](C(=O)N[C@H](C(=O)N[C@@H](CC(=O)O)C(=O)N[C@@H](CCCCN)C(=O)N[C@H](C(=O)N[C@@H](CC(=O)O)C(=O)N[C@@H](CCC(N)=O)C(=O)N[C@H](C(=O)N[C@H](C(=O)N[C@@H](Cc1c[nH]cn1)C(=O)N[C@@H](CC(=O)O)C(=O)N[C@@H](Cc1ccccc1)C(=O)N[C@H](C(=O)N[C@@H](CC(=O)O)C(=O)N[C@@H](CCCCN)C(=O)NCC(=O)N[C@@H](CO)C(=O)NCC(=O)N[C@@H](CO)C(=O)NCC(=O)N[C@@H](CSCC(=O)NCCOCCOCCOCCOCCC(=O)O[C@H]1CC[C@@]2(C)C(=CC[C@H]3[C@@H]4CC[C@H]([C@H](C)CCCC(C)C)[C@@]4(C)CC[C@@H]32)C1)C(N)=O)C(C)C)[C@@H](C)CC)[C@@H](C)CC)[C@@H](C)CC)[C@@H](C)O)[C@@H](C)CC)[C@@H](C)O` [TAT-EBO-PEG4-Chol], the figures for the IC50 with ZEBOV Mayinga, in the assay on ZEBOV Gueckedou C07 and in the assay with Bundibugyo EBOV were 50 nM, 20 nM and 70 nM, respectively. Besides, the Max % inh with ZEBOV Mayinga was 97.9%; with ZEBOV Gueckedou C07, 97.5%; with Bundibugyo EBOV, 98.5%.
